Laboratory results from ChEMBL document CHEMBL1201862, “PubChem BioAssay data set” (2004).
Calls of active or inactive are those of the source.

What was measured:
[1] = target: Estrogen receptor beta (Homo sapiens, UniProt Q92731); assay: blockers of SRC-3 recruitment to ERβ – biochemical, ELISA, streptavidin-HRP readout, orthogonal assay, confirmation (AID 1060)
[2] = NIH-3T3 fibroblast cytotoxicity, dose response, cytotoxicity control, cell-based, fluorescence, Alamar Blue, secondary assay (AID 2327); type: functional;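 further: NIH-3T3 mouse fibroblasts cultured with fluconazole at 8 µg/mL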
[3] = fluconazole-exposed Candida albicans growth modulators – fluorescence, retest, confirmation (AID 2467); type: functional, cell-based
[4] = target: Epstein-Barr nuclear antigen 1 (Epstein-Barr virus (strain B95-8) (HHV-4) (Human herpesvirus 4), UniProt P03211); assay: inhibition of EBV nuclear antigen 1 DNA binding – biochemical, fluorescence polarization, 1536-well, dose response (AID 2381); design: species or system human gammaherpesvirus 4;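 further: fluorescence polarization of a Cy5 DNA probe bound by EBNA-1 protein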
[5] = Luminescence Cell-Based Dose Response to Identify Activators of 5'UTR Stem-Loop Driven Prion Protein mRNA Translation in H4-C Neuroglioblastoma Cells. [Related pubchem assays: 1829 (Project Summary), 1814 (Primary HTS)]; type: functional
[6] = system: H4; assay: Luminescence Cell-Based Dose Response HTS to Identify Activators of 5'UTR Stem-Loop Driven Prion Protein mRNA Translation in H4 Neuroglioblastoma Cells. [Related pubchem assays: 1829 (Project Summary), 1814 (Primary HTS)]; type: functional; conditions: Homo sapiens
[7] = Luminescence Cell-Based Dose Confirmation to Identify Activators of 5'UTR Stem-Loop Driven Alpha-Synuclein mRNA Translation in H4 Neuroglioblastoma Cells. [Related pubchem assays: 1829 (Project Summary), 1814 (Primary HTS)]; type: functional
[8] = target: Lytic switch protein BZLF1 (Epstein-Barr virus (strain B95-8) (HHV-4) (Human herpesvirus 4), UniProt P03206); assay: inhibition of BZLF1 ZTA DNA binding – biochemical, fluorescence polarization, Epstein-Barr virus, 1536-well, counter-screen for EBNA-1 inhibitor project, dose response (AID 2377); design: species or system human gammaherpesvirus 4;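 further: fluorescence polarization of Cy5-labelled ZRE DNA probe bound by purified Zta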
[9] = Luminescence Cell-Based Dose Response to Identify Activators of Luciferase Translation or Activity in H4-C Neuroglioblastoma Cells. [Related pubchem assays: 1829 (Project Summary), 1814 (Primary HTS)]; type: functional
[10] = target: Neuropeptide Y receptor type 1 (Homo sapiens, UniProt P25929); type: functional;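 further: HEK293 cells with a CNG channel challenged with NPY then isoproterenol; potency as antagonist that reverses NPY suppression of cAMP signal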
[11] = target: Neuropeptide Y receptor type 2 (Homo sapiens, UniProt P49146); type: functional, cell-based;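 further: HEK293 cells expressing the receptor and a CNG channel; stimulus was NPY near EC95 followed by isoproterenol to raise cAMP; antagonist potency measured as restoring cAMP signal that NPY suppresses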
[12] = inhibition of ADAM10 peptide cleavage – biochemical, FRET peptide substrate, recombinant human ADAM10, selectivity assay for ADAM17 exosite inhibitor project, dose response (AID 743259);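 further: ADAM10 enzyme cleaving a FRET peptide substrate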
[13] = target: Disintegrin and metalloproteinase domain-containing protein 17 (Homo sapiens, UniProt P78536); assay: exosite inhibitors of ADAM17, dose response, biochemical (AID 743260)
[14] = target: Ephrin type-A receptor 4 (Mus musculus, UniProt Q03137); assay: EphA4 ligand-binding antagonists – biochemical, colorimetric, mouse EphA4, primary screen (AID 689); type: functional
Sequence of Ephrin type-A receptor 4 (Q03137 whole entry): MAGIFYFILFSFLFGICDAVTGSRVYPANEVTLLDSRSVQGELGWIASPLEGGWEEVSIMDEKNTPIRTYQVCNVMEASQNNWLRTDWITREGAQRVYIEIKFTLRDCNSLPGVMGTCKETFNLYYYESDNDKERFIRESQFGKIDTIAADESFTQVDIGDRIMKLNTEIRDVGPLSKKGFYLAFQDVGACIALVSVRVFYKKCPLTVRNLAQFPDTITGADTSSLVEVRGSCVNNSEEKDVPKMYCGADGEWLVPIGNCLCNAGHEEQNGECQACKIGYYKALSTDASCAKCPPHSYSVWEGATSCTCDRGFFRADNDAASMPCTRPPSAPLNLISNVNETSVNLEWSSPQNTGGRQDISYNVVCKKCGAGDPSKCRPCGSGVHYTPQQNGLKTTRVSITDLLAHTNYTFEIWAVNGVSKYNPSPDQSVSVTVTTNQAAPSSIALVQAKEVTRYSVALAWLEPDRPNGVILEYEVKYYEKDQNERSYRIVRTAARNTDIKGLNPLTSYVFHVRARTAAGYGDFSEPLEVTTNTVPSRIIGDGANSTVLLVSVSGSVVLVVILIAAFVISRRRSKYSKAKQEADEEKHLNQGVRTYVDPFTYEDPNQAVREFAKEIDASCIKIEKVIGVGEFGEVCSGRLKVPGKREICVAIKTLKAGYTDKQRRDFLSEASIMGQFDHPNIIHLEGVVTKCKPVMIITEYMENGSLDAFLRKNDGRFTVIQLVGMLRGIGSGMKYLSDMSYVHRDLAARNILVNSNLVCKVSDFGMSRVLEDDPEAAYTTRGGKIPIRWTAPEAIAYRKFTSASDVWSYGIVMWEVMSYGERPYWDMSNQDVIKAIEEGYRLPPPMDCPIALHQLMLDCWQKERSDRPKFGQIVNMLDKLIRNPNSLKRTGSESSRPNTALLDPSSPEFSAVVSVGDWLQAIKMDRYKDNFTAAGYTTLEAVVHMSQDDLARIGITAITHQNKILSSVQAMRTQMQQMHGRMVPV

Sequence of Epstein-Barr nuclear antigen 1 (P03211 whole entry): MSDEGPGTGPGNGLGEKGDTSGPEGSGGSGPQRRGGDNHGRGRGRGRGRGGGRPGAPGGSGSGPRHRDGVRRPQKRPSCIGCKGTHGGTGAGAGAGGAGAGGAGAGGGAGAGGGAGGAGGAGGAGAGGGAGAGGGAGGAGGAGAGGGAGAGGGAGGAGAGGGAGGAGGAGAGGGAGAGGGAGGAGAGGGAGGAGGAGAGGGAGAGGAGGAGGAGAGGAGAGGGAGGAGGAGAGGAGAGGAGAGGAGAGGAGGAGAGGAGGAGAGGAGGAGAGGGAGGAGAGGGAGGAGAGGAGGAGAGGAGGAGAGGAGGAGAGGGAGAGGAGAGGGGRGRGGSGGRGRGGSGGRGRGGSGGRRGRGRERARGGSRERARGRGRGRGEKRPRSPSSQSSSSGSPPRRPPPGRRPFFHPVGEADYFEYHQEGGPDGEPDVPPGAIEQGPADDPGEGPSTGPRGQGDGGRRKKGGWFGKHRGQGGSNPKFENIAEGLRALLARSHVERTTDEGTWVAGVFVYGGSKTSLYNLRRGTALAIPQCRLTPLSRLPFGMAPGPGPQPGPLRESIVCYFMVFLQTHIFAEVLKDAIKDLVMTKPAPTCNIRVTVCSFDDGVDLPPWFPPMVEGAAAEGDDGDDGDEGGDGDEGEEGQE
Sequence of Lytic switch protein BZLF1 (P03206 whole entry): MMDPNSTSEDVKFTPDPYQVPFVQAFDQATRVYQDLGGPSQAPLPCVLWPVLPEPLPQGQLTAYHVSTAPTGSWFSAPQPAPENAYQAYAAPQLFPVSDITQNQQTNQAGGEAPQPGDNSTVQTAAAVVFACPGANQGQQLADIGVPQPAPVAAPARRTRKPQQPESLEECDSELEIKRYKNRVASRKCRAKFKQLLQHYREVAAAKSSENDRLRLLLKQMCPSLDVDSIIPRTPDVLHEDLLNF
Sequence of Estrogen receptor beta (Q92731 whole entry): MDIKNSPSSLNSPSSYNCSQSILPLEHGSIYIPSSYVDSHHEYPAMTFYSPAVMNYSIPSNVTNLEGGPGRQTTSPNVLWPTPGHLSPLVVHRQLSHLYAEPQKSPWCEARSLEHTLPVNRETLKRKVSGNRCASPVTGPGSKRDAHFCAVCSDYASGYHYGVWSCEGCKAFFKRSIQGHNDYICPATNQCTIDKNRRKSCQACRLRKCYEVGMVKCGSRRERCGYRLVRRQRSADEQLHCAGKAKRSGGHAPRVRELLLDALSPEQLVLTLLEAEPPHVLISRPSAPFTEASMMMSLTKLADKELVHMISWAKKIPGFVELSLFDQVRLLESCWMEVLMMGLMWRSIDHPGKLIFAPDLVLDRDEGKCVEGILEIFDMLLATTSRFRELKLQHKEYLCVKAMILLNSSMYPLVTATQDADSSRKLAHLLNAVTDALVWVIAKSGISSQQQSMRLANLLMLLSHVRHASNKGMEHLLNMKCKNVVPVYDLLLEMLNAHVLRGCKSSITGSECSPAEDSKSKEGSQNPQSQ
Sequence of Neuropeptide Y receptor type 2 (P49146 whole entry): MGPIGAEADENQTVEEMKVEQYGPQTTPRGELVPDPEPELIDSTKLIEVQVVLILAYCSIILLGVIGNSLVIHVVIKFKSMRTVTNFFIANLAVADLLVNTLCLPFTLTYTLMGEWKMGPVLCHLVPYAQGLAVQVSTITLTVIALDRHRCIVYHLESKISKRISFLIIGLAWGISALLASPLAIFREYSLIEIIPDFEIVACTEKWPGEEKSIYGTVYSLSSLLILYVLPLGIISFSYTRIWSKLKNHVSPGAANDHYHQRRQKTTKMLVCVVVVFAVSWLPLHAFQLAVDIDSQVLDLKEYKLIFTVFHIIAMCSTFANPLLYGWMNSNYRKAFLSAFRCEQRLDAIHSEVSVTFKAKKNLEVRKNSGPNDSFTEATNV
Sequence of Neuropeptide Y receptor type 1 (P25929 whole entry): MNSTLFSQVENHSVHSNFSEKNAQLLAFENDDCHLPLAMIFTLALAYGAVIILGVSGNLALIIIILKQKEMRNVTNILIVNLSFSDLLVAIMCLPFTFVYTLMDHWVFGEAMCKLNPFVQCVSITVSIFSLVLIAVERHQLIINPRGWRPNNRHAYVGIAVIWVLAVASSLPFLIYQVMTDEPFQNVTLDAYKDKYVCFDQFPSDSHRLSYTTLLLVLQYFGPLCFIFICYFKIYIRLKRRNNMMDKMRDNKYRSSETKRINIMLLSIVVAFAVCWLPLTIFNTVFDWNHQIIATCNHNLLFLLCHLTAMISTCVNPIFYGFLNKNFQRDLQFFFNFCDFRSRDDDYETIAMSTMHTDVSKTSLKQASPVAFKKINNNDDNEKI
Sequence of Disintegrin and metalloproteinase domain-containing protein 17 (P78536 whole entry, the tested form may be a part): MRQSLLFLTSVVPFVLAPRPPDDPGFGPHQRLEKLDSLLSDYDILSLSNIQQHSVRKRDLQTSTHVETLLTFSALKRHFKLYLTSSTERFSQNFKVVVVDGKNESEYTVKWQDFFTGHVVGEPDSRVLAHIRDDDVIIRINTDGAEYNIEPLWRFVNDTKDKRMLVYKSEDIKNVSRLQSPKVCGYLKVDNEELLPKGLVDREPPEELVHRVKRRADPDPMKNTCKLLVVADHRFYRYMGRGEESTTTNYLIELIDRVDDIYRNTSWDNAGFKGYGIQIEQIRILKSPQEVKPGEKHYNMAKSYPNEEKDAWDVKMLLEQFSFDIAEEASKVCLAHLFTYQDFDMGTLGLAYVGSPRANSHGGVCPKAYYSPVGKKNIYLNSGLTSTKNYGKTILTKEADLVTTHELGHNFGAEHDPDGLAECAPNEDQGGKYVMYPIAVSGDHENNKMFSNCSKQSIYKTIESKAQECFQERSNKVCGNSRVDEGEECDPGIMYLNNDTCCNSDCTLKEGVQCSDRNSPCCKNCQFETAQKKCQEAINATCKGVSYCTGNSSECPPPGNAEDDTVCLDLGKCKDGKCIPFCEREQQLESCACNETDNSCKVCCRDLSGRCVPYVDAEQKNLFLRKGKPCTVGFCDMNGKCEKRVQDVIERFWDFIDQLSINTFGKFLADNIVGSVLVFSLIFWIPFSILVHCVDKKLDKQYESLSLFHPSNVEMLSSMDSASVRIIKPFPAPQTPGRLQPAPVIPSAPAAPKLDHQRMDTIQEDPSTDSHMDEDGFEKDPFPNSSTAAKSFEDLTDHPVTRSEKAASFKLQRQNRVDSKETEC

## CN1CCN(C(c2cccnc2)c2ccc3cccnc3c2O)CC1 (centres undefined)
[1]
  IC50: 32.6 µM (not active)
[2]
  EC50: > 160 µM (inactive)
[3]
  EC50: > 38 µM (not active)

## Cc1cc(C(=O)CSc2nnnn2-c2ccccc2)c(C)n1CC1CCCO1 (centres undefined)
[4]
  IC50: 5.23 µM (active)
[5]
  EC50: 0.326 µM (active)
[6]
  EC50: < 0.1 µM (active)
[7]
  EC50: 0.338 µM (active)
[8]
  IC50: > 111 µM (not active)
[9]
  EC50: 0.353 µM (active)

## COc1ccc(-c2noc(COc3ccc(Cl)c(C)c3)n2)cc1
[10]
  IC50: 5.14 µM (active)
[11]
  IC50: 4.25 µM (active)

## CCOC(=O)c1cc(OC(=O)c2ccccc2OC)n(-c2ccccc2)n1
[12]
  IC50: > 69.5 µM (inactive)
[13]
  IC50: > 69.5 µM (inactive)
[14]
  IC50: 19.7 µM (active)
